{"source": "ChEMBL document CHEMBL5257035", "about": "“Nucleoside Derived Antibiotics to Fight Microbial Drug Resistance: New Utilities for an Established Class of Drugs?” (J Med Chem, 2016)", "key": {"Pseudomonas aeruginosa [1]": {"tested_on": "Pseudomonas aeruginosa", "experiment": "Antibacterial activity against Pseudomonas aeruginosa assessed as bacterial growth reduction", "format": "functional"}, "[2]": {"experiment": "Cytotoxicity against human HepG2 cells assessed as reduction in cell viability incubated for 72 hrs by MTT assay", "format": "toxicity, cell-based"}, "[3]": {"biological_target": "T1, Phospho-N-acetylmuramoyl-pentapeptide-transferase (Escherichia coli K-12, UniProt P0A6W3)", "T1 sequence (P0A6W3 whole entry)": "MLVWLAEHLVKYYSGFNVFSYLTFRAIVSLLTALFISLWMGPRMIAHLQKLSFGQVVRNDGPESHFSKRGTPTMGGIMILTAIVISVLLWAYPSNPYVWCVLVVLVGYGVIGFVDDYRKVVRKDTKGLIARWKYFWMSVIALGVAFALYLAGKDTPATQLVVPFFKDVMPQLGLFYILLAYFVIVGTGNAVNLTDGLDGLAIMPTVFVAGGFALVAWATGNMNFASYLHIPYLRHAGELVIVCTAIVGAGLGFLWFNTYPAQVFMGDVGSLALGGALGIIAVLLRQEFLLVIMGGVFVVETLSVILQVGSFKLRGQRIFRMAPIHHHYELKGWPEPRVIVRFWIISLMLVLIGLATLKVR", "experiment": "Inhibition of MraY in Escherichia coli K12"}, "Escherichia coli": {"tested_on": "Escherichia coli", "experiment": "Antibacterial activity against Escherichia coli ATCC 25922 assessed as bacterial growth inhibition measured after 48 hrs by microdilution method", "format": "functional"}, "Staphylococcus aureus": {"tested_on": "Staphylococcus aureus", "experiment": "Antibacterial activity against methicillin-resistant Staphylococcus aureus SR3637 assessed as reduction in bacterial growth inhibition", "format": "functional"}, "Coccidioides immitis": {"tested_on": "Coccidioides immitis", "experiment": "Antifungal activity against Coccidioides immitis assessed as reduction in fungal growth", "format": "functional"}, "Cryptococcus neoformans": {"tested_on": "Cryptococcus neoformans", "experiment": "Antifungal activity against Cryptococcus neoformans assessed as reduction in fungal growth", "format": "functional"}, "Candida albicans": {"tested_on": "Candida albicans", "experiment": "Antifungal activity against Candida albicans SC5314 assessed as reduction in microbial growth inhibition incubated for 48 hrs by broth microdilution assay", "format": "functional"}, "[4]": {"tested_on": "Cutaneotrichosporon cutaneum", "experiment": "Antifungal activity against Trichosporon cutaneum 3071 assessed as reduction in microbial growth inhibition for 48 hrs by broth microdilution assay", "format": "functional"}, "Pseudomonas aeruginosa [5]": {"tested_on": "Pseudomonas aeruginosa", "experiment": "Antibacterial activity against Pseudomonas aeruginosa assessed as bacterial growth inhibition", "format": "functional"}}}
{"molecule": "C[C@@H]([C@H](NC(=O)[C@H](Cc1ccccc1)NC(=O)N[C@@H](Cc1c[nH]c2ccccc12)C(=O)O)C(=O)NCC1C[C@@H](O)[C@H](n2ccc(=O)[nH]c2=O)O1)N(C)C(=O)[C@@H](N)Cc1ccc(F)cc1", "note": "(some centres undefined)", "values": [{"measurement": "MIC", "setting": "Pseudomonas aeruginosa [1]", "result": 16, "unit": "µg/mL"}]}
{"molecule": "CCCCCCCCCCCCCCC[C@H](NC(=O)[C@@H](NC(=O)N[C@H](C(=O)O)C(C)C)[C@@H]1CCNC(=N)N1)C(=O)NCCCNC(C(=O)O)[C@H](O[C@@H]1O[C@H](CN)[C@@H](O)[C@H]1O)[C@H]1O[C@@H](n2ccc(=O)[nH]c2=O)[C@H](O)[C@@H]1O", "note": "(some centres undefined)", "values": [{"measurement": "IC50 at 72 h", "setting": "[2]", "result": "> 100", "unit": "µg/mL"}]}
{"molecule": "CCCCOc1ccc(-c2ccc(CC[C@H](NC(=O)[C@@H](NC(=O)N[C@H](C(=O)O)C(C)C)[C@@H]3CCNC(=N)N3)C(=O)NCCCNC(C(=O)O)[C@H](O[C@@H]3O[C@H](CN)[C@@H](O)[C@H]3O)[C@H]3O[C@@H](n4ccc(=O)[nH]c4=O)[C@H](O)[C@@H]3O)cc2)cc1", "note": "(some centres undefined)", "values": [{"measurement": "IC50 at 72 h", "setting": "[2]", "result": "> 100", "unit": "µg/mL"}]}
{"molecule": "CCCCCCCCCCCCCNC[C@@H](O[C@@H]1O[C@H](CN)[C@@H](O)[C@H]1O)[C@H]1O[C@@H](n2ccc(=O)[nH]c2=O)[C@H](O)[C@@H]1O", "values": [{"measurement": "IC50", "setting": "[3]", "result": 330, "unit": "nM"}, {"measurement": "MIC", "setting": "Escherichia coli", "result": 2.5, "unit": "µg/mL"}]}
{"molecule": "CCCCOc1ccc(-c2ccc(CC[C@@H](NC(=O)[C@@H](NC(=O)N[C@H](C(=O)O)C(C)C)[C@@H]3CCNC(=N)N3)C(=O)NCCCNC(C(=O)O)[C@H](O[C@@H]3O[C@H](CN)[C@@H](O)[C@H]3O)[C@H]3O[C@@H](n4ccc(=O)[nH]c4=O)[C@H](O)[C@@H]3O)cc2)cc1", "note": "(some centres undefined)", "values": [{"measurement": "IC50 at 72 h", "setting": "[2]", "result": "> 100", "unit": "µg/mL"}]}
{"molecule": "CCCCCCCCCCCCCC[C@@H](NC(=O)C(C)CCCNC(=N)N)C(=O)NC[C@@H]1C[C@H]2[C@@H](C(=O)N1)[C@H]([C@H]1O[C@@H](n3ccc(=O)[nH]c3=O)[C@H](O)[C@@H]1O)ON2CCCN", "note": "(some centres undefined)", "values": [{"measurement": "MIC", "setting": "Staphylococcus aureus", "result": 8, "unit": "µg/mL"}]}
{"molecule": "CCCCNC[C@@H](O[C@@H]1O[C@H](CN)[C@@H](O)[C@H]1O)[C@H]1O[C@@H](n2ccc(=O)[nH]c2=O)[C@H](O)[C@@H]1O", "values": [{"measurement": "IC50", "setting": "[3]", "result": 330, "unit": "nM"}, {"measurement": "MIC", "setting": "Escherichia coli", "result": 2.5, "unit": "µg/mL"}]}
{"molecule": "CCCCCCCCCCCCCC(=O)NC[C@@H]1C[C@H]2[C@@H](C(=O)N1CCCNC(=N)N)[C@H]([C@H]1O[C@@H](n3ccc(=O)[nH]c3=O)[C@H](O)[C@@H]1O)ON2CCCN", "values": [{"measurement": "MIC", "setting": "Staphylococcus aureus", "result": 8, "unit": "µg/mL"}]}
{"molecule": "CC(C)C[C@H](NC(=O)N[C@@H](Cc1c[nH]c2ccccc12)C(=O)O)C(=O)N[C@H](C(=O)NC[C@H]1C[C@@H](O)[C@H](n2ccc(=O)[nH]c2=O)O1)[C@H](C)N(C)C(=O)CN", "values": [{"measurement": "MIC", "setting": "Pseudomonas aeruginosa [1]", "result": 4, "unit": "µg/mL"}]}
{"molecule": "C[C@@H]([C@H](NC(=O)[C@H](Cc1ccccc1)NC(=O)N[C@@H](Cc1c[nH]c2ccccc12)C(=O)O)C(=O)NC[C@H]1C[C@@H](O)[C@H](n2ccc(=O)[nH]c2=O)O1)N(C)C(=O)CN", "values": [{"measurement": "MIC", "setting": "Pseudomonas aeruginosa [1]", "result": 8, "unit": "µg/mL"}]}
{"molecule": "N[C@@H](Cc1ccc(O)cc1)C(=O)N[C@H](C(=O)O)[C@@H]1C[C@@H](O)[C@@H](O)[C@H](n2ccc(=O)[nH]c2=O)O1", "values": [{"measurement": "MIC", "setting": "Coccidioides immitis", "result": 0.25, "unit": "µg/mL"}, {"measurement": "MIC", "setting": "Cryptococcus neoformans", "result": 0.25, "unit": "µg/mL"}]}
{"molecule": "C[C@H](N)C(=O)N(C)[C@@H](C)[C@H](NC(=O)[C@H](Cc1ccccc1)NC(=O)N[C@@H](Cc1c[nH]c2ccccc12)C(=O)O)C(=O)NCC1C[C@@H](O)[C@H](n2ccc(=O)[nH]c2=O)O1", "note": "(some centres undefined)", "values": [{"measurement": "MIC", "setting": "Pseudomonas aeruginosa [1]", "result": 16, "unit": "µg/mL"}]}
{"molecule": "N[C@@H](Cc1ccccc1)C(=O)N[C@H](C(=O)O)[C@@H]1C[C@@H](O)[C@@H](O)[C@H](n2ccc(=O)[nH]c2=O)O1", "values": [{"measurement": "MIC", "setting": "Coccidioides immitis", "result": 0.25, "unit": "µg/mL"}, {"measurement": "MIC", "setting": "Cryptococcus neoformans", "result": 0.25, "unit": "µg/mL"}]}
{"molecule": "CCCCCCCCCCCCCC(=O)NC[C@@H]1C[C@H]2[C@@H](C(=O)N1CCCNC(=N)N)[C@@H]([C@H]1O[C@@H](n3ccc(=O)[nH]c3=O)[C@H](O)[C@@H]1O)ON2CCCN", "values": [{"measurement": "MIC", "setting": "Staphylococcus aureus", "result": 8, "unit": "µg/mL"}]}
{"molecule": "C/C=C1\\CN(C(=O)[C@@H](NC(=O)[C@@H](N)[C@H](O)[C@@H](O)COC(N)=O)[C@H]2O[C@@H](n3cc(C=O)[nH]c3=O)[C@H](O)[C@@H]2O)[C@H]1C(=O)O", "values": [{"measurement": "MIC", "setting": "Candida albicans", "result": "> 256", "unit": "µg/mL"}, {"measurement": "MIC", "setting": "[4]", "result": 0.5, "unit": "µg/mL"}]}
{"molecule": "CCCCCCCCCCCCCC[C@@H](NC(=O)C(C)CCCNC(=N)N)C(=O)NC[C@@H]1CC[C@H]2[C@@H](C(=O)N1)[C@H]([C@H]1O[C@@H](n3ccc(=O)[nH]c3=O)[C@H](O)[C@@H]1O)ON2CCCN", "note": "(some centres undefined)", "values": [{"measurement": "MIC", "setting": "Staphylococcus aureus", "result": 8, "unit": "µg/mL"}]}
{"molecule": "CC(C)[C@H](NC(=O)N[C@H](C(=O)N[C@H](CCCCCCCc1ccc(-c2ccccc2)cc1)C(=O)NCCCNC(C(=O)O)[C@H](O[C@@H]1O[C@H](CN)[C@@H](O)[C@H]1O)[C@H]1O[C@@H](n2ccc(=O)[nH]c2=O)[C@H](O)[C@@H]1O)[C@@H]1CCNC(=N)N1)C(=O)O", "note": "(some centres undefined)", "values": [{"measurement": "IC50 at 72 h", "setting": "[2]", "result": "> 100", "unit": "µg/mL"}]}
{"molecule": "NC(=O)c1ncn([C@@H]2O[C@H](CO)[C@@H](O)[C@H]2O)n1", "note": "[RIBAVIRIN]", "values": [{"measurement": "MIC", "setting": "Pseudomonas aeruginosa [5]", "result": 3, "unit": "µg/mL"}]}
{"molecule": "CSCC[C@H](NC(=O)NC(Cc1cccc(O)c1)C(=O)O)C(=O)NC(CN(C)C(=O)[C@@H](N)C(Cc1cccc(O)c1)NCC(=O)O)C(=O)N/C=C1/C[C@@H](O)[C@H](N2CCC(=O)NC2=O)O1", "note": "(some centres undefined)", "values": [{"measurement": "MIC", "setting": "Pseudomonas aeruginosa [5]", "result": 1.5, "unit": "µg/mL"}]}
